Values quoted from earlier work, collected in patent publication US20260191683A1, “SUSTAINED RELEASE OCULAR IMPLANTS” (University of Tennessee Research Foundation, priority 2023, published 2026).

Details: high permeability

## CC(C)C[C@H](CN)CC(=O)O [PRG, pregabalin]
  BCS class: BCS class I drug
